Structures can show the parent of a compound that is named as a salt.
Tests used:
[1] = molecular target: T1, Rat FAAH-1 (Rattus norvegicus, UniProt P97612); test: Rat FAAH-1 assay (Assay Method 2), 3H-anandamide hydrolysis in cell homogenate; type: biochemical
T1 construct: expressed in transfected cells
T1 sequence (P97612 1-579): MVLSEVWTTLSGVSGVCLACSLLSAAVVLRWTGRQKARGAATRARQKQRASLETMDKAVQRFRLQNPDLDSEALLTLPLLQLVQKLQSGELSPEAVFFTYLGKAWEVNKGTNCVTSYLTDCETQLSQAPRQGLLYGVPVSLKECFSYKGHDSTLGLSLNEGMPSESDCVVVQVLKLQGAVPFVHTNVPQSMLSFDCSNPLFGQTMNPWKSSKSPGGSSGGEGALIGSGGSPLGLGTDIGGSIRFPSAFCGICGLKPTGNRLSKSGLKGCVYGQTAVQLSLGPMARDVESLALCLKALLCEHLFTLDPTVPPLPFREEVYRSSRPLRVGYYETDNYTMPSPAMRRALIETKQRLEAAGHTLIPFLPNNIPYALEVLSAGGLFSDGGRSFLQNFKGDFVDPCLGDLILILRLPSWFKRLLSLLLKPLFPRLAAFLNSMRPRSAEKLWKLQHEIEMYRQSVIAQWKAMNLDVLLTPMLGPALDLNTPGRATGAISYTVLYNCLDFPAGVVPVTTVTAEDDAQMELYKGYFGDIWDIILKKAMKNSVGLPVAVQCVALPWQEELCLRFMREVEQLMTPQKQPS
Protocol: A. Transfection of Cells with Rat FAAH-1
(§1) A 10-cm tissue culture dish with a confluent monolayer of SK-N-MC cells was split 2 days (d) prior to transfection. Using sterile technique, the media was removed and the cells were detached from the dish by the addition of trypsin. One fifth of the cells were then placed onto a new 10-cm dish. Cells were grown in a 37° C. incubator with 5% CO2 in Minimal Essential Media Eagle with 10% Fetal Bovine Serum. After 2 d, cells were approximately 80% confluent. These cells were removed from the dish with trypsin and pelleted in a clinical centrifuge. The pellet was re-suspended in 400 μL complete media and transferred to an electroporation cuvette with a 0.4 cm gap between the electrodes. Supercoiled rat FAAH cDNA (1 μg) was added to the cells and mixed. The voltage for the electroporation was set at 0.25 kV, and the capacitance was set at 960 μF. After electroporation, the cells were diluted into complete media (10 mL) and plated onto four 10-cm dishes. Because of the variability in the efficiency of electroporation, four different concentrations of cells were plated. The ratios used were 1:20, 1:10, and 1:5, with the remainder of the cells being added to the fourth dish. The cells were allowed to recover for 24 h before adding the selection media (complete media with 600 μg/mL G418). After 10 d, dishes were analyzed for surviving colonies of cells. Dishes with well-isolated colonies were used. Cells from individual colonies were isolated and tested.
(§2) The assay mixture consisted of 50 μL of the cell homogenate, 10 μL of the test compound, and 40 μL of anandamide [1-^3H-ethanolamine] (^3H-AEA, Perkin-Elmer, 10.3 Ci/mmol), which was added last, for a final tracer concentration of 80 nM. The reaction mixture was incubated at rt for 1 h. During the incubation, 96-well Multiscreen filter plates (catalog number MAFCNOB50; Millipore, Bedford, Mass., USA) were loaded with 25 μL of activated charcoal (Multiscreen column loader, catalog number MACL09625, Millipore) and washed once with 100 μL of MeOH. Also during the incubation, 96-well DYNEX MicroLite plates (catalog number NL510410) were loaded with 100 μL of MicroScint40 (catalog number 6013641, Packard Bioscience, Meriden, Conn., USA). After the 1 h incubation, 60 μL of the reaction mixture were transferred to the charcoal plates, which were then assembled on top of the DYNEX plates using Centrifuge Alignment Frames (catalog number MACF09604, Millipore). The unbound labeled ethanolamine was centrifuged through to the bottom plate (5 min at 2000 rpm), which was preloaded with the scintillant, as described above. The plates were sealed and left at rt for 1 h before counting on a Hewlett Packard TopCount.
(§3) Where activity is shown as greater than (>) a particular value, the value is the solubility limit of the compound in the assay medium or the highest concentration tested in the assay.

[2] = molecular target: T2, FAAH (Homo sapiens, UniProt O00519); test: Human FAAH assay (Assay Method 1), 3H-anandamide hydrolysis in cell homogenate; type: biochemical; design: expressed in transfected cells; alternatively T84 frozen cell pellets (endogenous FAAH)
T2 sequence (O00519 1-579): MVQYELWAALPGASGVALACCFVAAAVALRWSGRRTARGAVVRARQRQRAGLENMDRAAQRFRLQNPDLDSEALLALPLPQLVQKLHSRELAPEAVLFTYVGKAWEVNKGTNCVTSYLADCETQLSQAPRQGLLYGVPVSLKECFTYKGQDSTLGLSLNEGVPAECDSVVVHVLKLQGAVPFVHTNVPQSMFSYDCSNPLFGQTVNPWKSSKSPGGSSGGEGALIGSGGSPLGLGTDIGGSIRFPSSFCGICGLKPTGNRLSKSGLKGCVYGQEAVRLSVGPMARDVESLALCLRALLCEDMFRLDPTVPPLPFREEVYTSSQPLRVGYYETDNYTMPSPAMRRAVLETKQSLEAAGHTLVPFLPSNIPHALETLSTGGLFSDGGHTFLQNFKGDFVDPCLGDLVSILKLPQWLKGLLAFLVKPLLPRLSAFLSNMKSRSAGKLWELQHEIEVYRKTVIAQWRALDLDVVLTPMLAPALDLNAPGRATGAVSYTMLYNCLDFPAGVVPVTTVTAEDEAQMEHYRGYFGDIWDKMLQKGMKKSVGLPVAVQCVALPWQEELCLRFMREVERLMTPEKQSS
Protocol: A. Transfection of Cells with Human FAAH
as §1, with “Supercoiled human” for “Supercoiled rat”
as §2, with “[1-3H-ethanolamine]” for “[1-^3H-ethanolamine]”
as §3

| Compound | IC50 [1] [nM] | IC50 [2] [nM] |
| --- | --- | --- |
| N[C@@H](CNc1cc(-c2ccc(C(F)(F)F)c(Cl)c2)ncn1)c1ccc(Cl)c(F)c1 [Example 45, (1R)—N^2-1-(4-Chloro-3-fluoro-phenyl)-[6-(3-chloro-4-trifluoromethyl-phenyl)-pyrimidin-4-yl]-ethane-1,2-diamine] | 70 | 80 |
| N[C@@H](CNc1cc(-c2ccc(C(F)(F)F)c(Cl)c2)ncn1)c1ccc(C(F)(F)F)cc1 [Example 30, (1R)—N^2-[6-(3-Chloro-4-trifluoromethyl-phenyl)-pyrimidin-4-yl]-1-(4-trifluoromethyl-phenyl)-ethane-1,2-diamine] | 52 | 160 |
| N[C@@H](CNc1cc(-c2cc3cc(OC(F)(F)F)ccc3s2)ncn1)c1ccccc1 [Example 25, (1R)-1-Phenyl-N^2-{6-[5-(trifluoromethoxy)-1-benzothiophen-2-yl]pyrimidin-4-yl}ethane-1,2-diamine hydrochloride acid salt] | 370 | 80 |
| N[C@@H](CNc1cc(-c2ccc(C(F)(F)F)c(Cl)c2)ncn1)c1ccc2c(c1)OC(F)(F)O2 [Example 32, (1R)—N^2-[6-(3-Chloro-4-trifluoromethyl-phenyl)-pyrimidin-4-yl]-1-(2,2-difluoro-benzo[1,3]dioxol-5-yl)-ethane-1,2-diamine] | 11 | 30 |
| N[C@@H](CNc1cc(-c2ccc(Cl)c(Cl)c2)ncn1)c1ccccc1 [Example 16, (1R)—N^2-[6-(3,4-Dichlorophenyl)pyrimidin-4-yl]-1-phenylethane-1,2-diamine hydrochloride acid salt] | 500 | 90 |
| N[C@@H](CNc1cc(-c2ccc(OCC(F)(F)F)cc2)ncn1)c1ccccc1 [Example 20, (1R)-1-Phenyl-N^2-{6-[4-(2,2,2-trifluoroethoxy)phenyl]pyrimidin-4-yl}ethane-1,2-diamine hydrochloride acid salt] | 2000 | 130 |
| N#Cc1cccc([C@H](N)CNc2cc(-c3ccc(C(F)(F)F)c(Cl)c3)ncn2)c1 [Example 48, (1S)-3-{1-Amino-2-[6-(3-chloro-4-trifluoromethyl-phenyl)-pyrimidin-4-ylamino]-ethyl}-benzonitrile] | 3000 | 3000 |
| N[C@H](CNc1cc(-c2ccc(C(F)(F)F)c(Cl)c2)ncn1)c1ccc(C(F)(F)F)cc1 [Example 29, (1S)—N^2-[6-(3-Chloro-4-trifluoromethyl-phenyl)-pyrimidin-4-yl]-1-(4-trifluoromethyl-phenyl)-ethane-1,2-diamine] | 1700 | 1400 |
| N[C@H](CNc1cc(-c2ccc(C(F)(F)F)c(Cl)c2)ncn1)c1ccc(Cl)cc1 [Example 38, (1S)—N^2-1-(4-Chloro-phenyl)-[6-(3-chloro-4-trifluoromethyl-phenyl)-pyrimidin-4-yl]-ethane-1,2-diamine, trifluoroacetic acid salt] | 2200 | 1600 |
| N[C@@H](CNc1cc(-c2ccc(C(F)(F)F)c(Cl)c2)ncn1)c1ccc(F)c(F)c1 [Example 41, (1R)—N^2-[6-(3-Chloro-4-trifluoromethyl-phenyl)-pyrimidin-4-yl]-1-(3,4-difluoro-phenyl)-ethane-1,2-diamine, trifluoroacetic acid salt] | 60 | 20 |
| N#Cc1ccc([C@@H](N)CNc2cc(-c3ccc(C(F)(F)F)c(Cl)c3)ncn2)cc1F [Example 52, (1R)-4-{1-Amino-2-[6-(3-chloro-4-trifluoromethyl-phenyl)-pyrimidin-4-ylamino]-ethyl}-2-fluoro-benzonitrile] | 240 | 130 |
| N[C@@H](CNc1cc(-c2ccc(C(F)(F)F)c(Cl)c2)ncn1)c1ccc(Cl)c(Cl)c1 [Example 43, (1R)—N^2-[6-(3-Chloro-4-trifluoromethyl-phenyl)-pyrimidin-4-yl]-1-(3,4-dichloro-phenyl)-ethane-1,2-diamine] | 95 | 200 |
| CSc1ccc([C@@H](N)CNc2cc(-c3ccc(C(F)(F)F)c(Cl)c3)ncn2)cc1 [Example 54, (1R)—N^2-[6-(3-Chloro-4-trifluoromethyl-phenyl)-pyrimidin-4-yl]-1-(4-methylsulfanyl-phenyl)-ethane-1,2-diamine] | 150 | 220 |
| N[C@@H](CNc1cc(-c2cccc(Cl)c2)ncn1)c1ccccc1 [Example 15, (1R)—N^2-[6-(3-Chlorophenyl)pyrimidin-4-yl]-1-phenylethane-1,2-diamine hydrochloride acid salt] |  | 1000 |

Source: patent publication US8906914B2, “Ethylene diamine modulators of fatty acid hydrolase” (priority 2009, dated 2014)
